Reference: patent US20170333591A9, “ABSORBENT ARTICLE COMPRISING MALODOR REDUCTION COMPOSITIONS” (The Procter & Gamble Company, priority 2014, published 2017)

Assay: Log of liquid dish neat product liquid-air partition coefficient
Assay type: physicochemical
Conditions: for Log of liquid dish neat product liquid-air partition coefficient (Comment Code): code letters K/L of the Comment Code

| SMILES | Comment Code: Log of liquid dish neat product liquid-air partition coefficient | Log of liquid dish neat product liquid-air partition coefficient (Comment Code) |
| --- | --- | --- |
| CC1=CCC(C23CCCC(C)(C2)OC3)C1(C)C (stereo not shown) [Material 570] | K (Log of liquid dish neat product liquid-air partition coefficient greater than or equal to 7) | K (Log of liquid dish neat product liquid-air partition coefficient greater than or equal to 7) |
| CC1C(C)(C)C2=C(C(=O)CCC2)C1(C)C (stereo not shown) [Material 572] | – | K (Log of liquid dish neat product liquid-air partition coefficient greater than or equal to 7) |
| CC(=O)OC12CCCC(C)(CCC3C1CC3(C)C)C2 (stereo not shown) [Material 573] | K (Log of liquid dish neat product liquid-air partition coefficient greater than or equal to 7) | K (Log of liquid dish neat product liquid-air partition coefficient greater than or equal to 7) |
| CC12CCCC(O)(C1)C1CC(C)(C)C1CC2 (stereo not shown) [Material 574] | K (Log of liquid dish neat product liquid-air partition coefficient greater than or equal to 7) | K (Log of liquid dish neat product liquid-air partition coefficient greater than or equal to 7) |
| Cc1ccc(C(C)C)cc1O [Material 575] | K (Log of liquid dish neat product liquid-air partition coefficient greater than or equal to 7) | – |
| C=C(C)C1CC=C(C)C(OC(C)=O)C1 (stereo not shown) [Material 577] | – | K (Log of liquid dish neat product liquid-air partition coefficient greater than or equal to 7) |
| CCOCCOCCO [Material 579] | K (Log of liquid dish neat product liquid-air partition coefficient greater than or equal to 7) | – |
| CCCCCCCCCC(=O)O [Material 582] | – | K (Log of liquid dish neat product liquid-air partition coefficient greater than or equal to 7) |
| COc1ccc(CC(C)C=O)cc1 (stereo not shown) [Material 586] | – | K (Log of liquid dish neat product liquid-air partition coefficient greater than or equal to 7) |
| CC12CCC(C(=O)C1=O)C2(C)C (stereo not shown) [Material 587] | – | K (Log of liquid dish neat product liquid-air partition coefficient greater than or equal to 7) |
| CCCCOC(=O)C(C)OC(=O)CCC (stereo not shown) [Material 595] | – | K (Log of liquid dish neat product liquid-air partition coefficient greater than or equal to 7) |
| C=CCCCCCCCCC(=O)OCCCC [Material 599] | – | K (Log of liquid dish neat product liquid-air partition coefficient greater than or equal to 7) |
| CC1=CCC(CCC(C)CO)C1(C)C (stereo not shown) [Material 600] | – | K (Log of liquid dish neat product liquid-air partition coefficient greater than or equal to 7) |
| CC(C)(C)c1ccc(CCC=O)cc1 [Material 601] | – | K (Log of liquid dish neat product liquid-air partition coefficient greater than or equal to 7) |
| CC1=C(C/C=C(\C)C=O)C(C)(C)CCC1 [Material 602] | K (Log of liquid dish neat product liquid-air partition coefficient greater than or equal to 7) | – |
| CC(C)C(=O)OC1CC2CCC1(C)C2(C)C (stereo not shown) [Material 603] | K (Log of liquid dish neat product liquid-air partition coefficient greater than or equal to 7) | K (Log of liquid dish neat product liquid-air partition coefficient greater than or equal to 7) |
| C=C1C2CCC(C)(OCC)C1CCC2(C)C (stereo not shown) [Material 606] | – | K (Log of liquid dish neat product liquid-air partition coefficient greater than or equal to 7) |
| CCOCOC1CCCCCCCCCCC1 [Material 607] | – | K (Log of liquid dish neat product liquid-air partition coefficient greater than or equal to 7) |
| CC(C)=CCCC(C)=C1CC=C(C)CC1 [Material 608] | – | K (Log of liquid dish neat product liquid-air partition coefficient greater than or equal to 7) |
| CC1=CC(=O)CC(C)C12CCC(=C(C)C)C2 (stereo not shown) [Material 610] | – | K (Log of liquid dish neat product liquid-air partition coefficient greater than or equal to 7) |
| C=C(C)C1CCC(C)(OC(C)=O)CC1 (stereo not shown) [Material 611] | – | K (Log of liquid dish neat product liquid-air partition coefficient greater than or equal to 7) |
| C=C(C)C1CCC(C)(O)CC1 (stereo not shown) [Material 612] | – | K (Log of liquid dish neat product liquid-air partition coefficient greater than or equal to 7) |

| SMILES | Comment Code: Log of liquid dish neat product liquid-air partition coefficient | Log of liquid dish neat product liquid-air partition coefficient (Comment Code) |
| --- | --- | --- |
| C=CC(=C)CCC=C(C)CCC=C(C)C=O [Material 613] | – | K (Log of liquid dish neat product liquid-air partition coefficient greater than or equal to 7) |
| C=C1C=CC(C(C)CCC=C(C)C)CC1 (stereo not shown) [Material 614] | – | K (Log of liquid dish neat product liquid-air partition coefficient greater than or equal to 7) |
| C=C(C)C1CCC2(C)CCCC(=C)C2C1 (stereo not shown) [Material 615] | – | K (Log of liquid dish neat product liquid-air partition coefficient greater than or equal to 7) |
| C=C1C2CCC(C2)C1(C)CCC=C(C)CO (stereo not shown) [Material 616] | K (Log of liquid dish neat product liquid-air partition coefficient greater than or equal to 7) | K (Log of liquid dish neat product liquid-air partition coefficient greater than or equal to 7) |
| CC1=C2CCC3(C)OC3C2C(C)(C)CCC1 (stereo not shown) [Material 624] | K (Log of liquid dish neat product liquid-air partition coefficient greater than or equal to 7) | K (Log of liquid dish neat product liquid-air partition coefficient greater than or equal to 7) |
| COC(Cc1ccccc1)OC [Material 627] | K (Log of liquid dish neat product liquid-air partition coefficient greater than or equal to 7) | K (Log of liquid dish neat product liquid-air partition coefficient greater than or equal to 7) |
| C=CC(=C)CCC=C(C)CCC=C(C)C [Material 628] | – | K (Log of liquid dish neat product liquid-air partition coefficient greater than or equal to 7) |
| CC(=O)C=CC12OC1(C)CCCC2(C)C (stereo not shown) [Material 636] | – | K (Log of liquid dish neat product liquid-air partition coefficient greater than or equal to 7) |
| CC(C)(O)CCc1ccccc1 [Material 639] | – | K (Log of liquid dish neat product liquid-air partition coefficient greater than or equal to 7) |
| CC(=O)CCc1ccccc1 [Material 640] | K (Log of liquid dish neat product liquid-air partition coefficient greater than or equal to 7) | – |
| CC(C)CC(=O)OCc1ccccc1 [Material 645] | K (Log of liquid dish neat product liquid-air partition coefficient greater than or equal to 7) | – |
| CC(C)C(=O)OCc1ccccc1 [Material 647] | K (Log of liquid dish neat product liquid-air partition coefficient greater than or equal to 7) | – |
| CC(C)(O)Cc1ccccc1 [Material 649] | – | K (Log of liquid dish neat product liquid-air partition coefficient greater than or equal to 7) |
| CC(C)C1OCCC2(CC3CCC2(C)C3(C)C)O1 (stereo not shown) [Material 659] | K (Log of liquid dish neat product liquid-air partition coefficient greater than or equal to 7) | K (Log of liquid dish neat product liquid-air partition coefficient greater than or equal to 7) |
| CC(C)=CCCC1=CCC(C#N)CC1 (stereo not shown) [Material 660] | – | K (Log of liquid dish neat product liquid-air partition coefficient greater than or equal to 7) |
| COc1ccc(COC(C)=O)cc1 [Material 664] | K (Log of liquid dish neat product liquid-air partition coefficient greater than or equal to 7) | – |
| COc1ccc(COC=O)cc1 [Material 665] | K (Log of liquid dish neat product liquid-air partition coefficient greater than or equal to 7) | – |
| CCCCCOC(=O)C=Cc1ccccc1 [Material 671] | – | K (Log of liquid dish neat product liquid-air partition coefficient greater than or equal to 7) |
| CCCCCOC(=O)c1ccccc1 [Material 672] | K (Log of liquid dish neat product liquid-air partition coefficient greater than or equal to 7) | – |
| C[C@@H]1CC[C@H]2C(C)(C)[C@H]3C[C@@]12CC1OC(C)(C)OC13C (stereo partly shown) [Material 674] | K (Log of liquid dish neat product liquid-air partition coefficient greater than or equal to 7) | K (Log of liquid dish neat product liquid-air partition coefficient greater than or equal to 7) |
| CC1(O)CCC2=C(CCCC2(C)C)C1 (stereo not shown) [Material 675] | – | K (Log of liquid dish neat product liquid-air partition coefficient greater than or equal to 7) |
